Laboratory results from patent US6677381B1 (Jame Fine Chemicals, Inc., priority 2001, dated 2004).
Where two headings read alike, the source gives them in different places.

Experiments:
[1] = cited from earlier work; for solubility in alcohols: alcohols such as methanol, ethanol, isopropanol
[2] = Solubility in water and organic solvents; format: physicochemical
Description: The guaifenesin tannate of the invention is a light-tan colored powder which is soluble in water and alcohols, but is insoluble in methylene chloride, chloroform or toluene. […]

For `COc1ccccc1OCC(O)CO` (centres unmarked) [guaifenesin, 3-(2-methoxyphenoxy)-1,2-propanediol], the solubility in alcohols [1] is listed as “readily soluble”, the solubility in water [1] is listed as “about 5 wt. %” and the solubility in alcohols [2] is listed as “soluble”. The solubility in toluene [2] was “sparingly soluble” and the solubility in water [2] was “soluble”.

In the case of `O=C(OC[C@H]1O[C@@H](OC(=O)c2cc(O)c(O)c(OC(=O)c3cc(O)c(O)c(O)c3)c2)[C@H](OC(=O)c2cc(O)c(O)c(OC(=O)c3cc(O)c(O)c(O)c3)c2)[C@@H](OC(=O)c2cc(O)c(O)c(OC(=O)c3cc(O)c(O)c(O)c3)c2)[C@@H]1OC(=O)c1cc(O)c(O)c(OC(=O)c2cc(O)c(O)c(O)c2)c1)c1cc(O)c(O)c(OC(=O)c2cc(O)c(O)c(O)c2)c1` [tannic acid], the solubility in alcohols [1] is listed as “highly soluble”, the solubility in water ([1]; in words) is listed as “highly soluble” and the solubility in alcohols [2] is listed as “soluble”. For the same compound, the solubility in chloroform [2] was “insoluble”, the “solubility in methylene chloride” value [2] was “insoluble” and the solubility in toluene [2] was “insoluble”. For the same compound, the solubility in water [2] was “soluble”.

For guaifenesin tannate, the solubility in alcohols ([2]; alcohols, physical properties comparison) was “soluble”, the solubility in chloroform ([2]; chloroform) was “insoluble” and the “solubility in methylene chloride” value ([2]; methylene chloride) was “insoluble”. The solubility in toluene ([2]; toluene) was “insoluble” and the solubility in water ([2]; water, physical properties comparison) was “soluble”.
